# Experimental data as given in US7414071B2, “Methods of treatment with selective EP4 receptor agonists” (Pfizer Inc., priority 2002, dated 2008).
# Key:
# [1] = test system: New Zealand White male rabbits; test: In vivo anesthetized rabbit model (hypotensive effect: mean arterial pressure and heart rate)
# Experimental: Methods: New Zealand White male rabbits (3-4 kg) are anesthetized with sodium pentobarbital (30 mg/kg, i.v.) and a surgical plane of anesthesia is maintained by a continuous infusion of sodium pentobarbital (16 mg/kg/hr) via an ear vein catheter. A tracheotomy is performed through a ventral midline cervical incision and the rabbits are ventilated with 100% oxygen using a positive pressure ventilator. Body temperature is maintained at 38.5° C. using a heating pad connected to a YSI temperature controller model 72 (Yellow Springs Instruments, Yellow Springs, […].). Fluid-filled catheters are placed in the right jugular vein (for intravenous drug administration) and in the right carotid artery for arterial pressure monitoring and for blood gas analysis using a model 248 blood gas analyzer (Bayer Diagnostics, Norwood, Mass.). The ventilator is adjusted as needed to maintain blood pH and pCO2 within normal physiological ranges for rabbits. […] Blood is sampled after dosing or during the infusion of the test compound to determine plasma concentrations of the test compounds.
# Thus, dosing volumes were 0.2 ml/kg (Group A) subcutaneously or 5 ml/h (Groups B, C, and D) as an intravenous (IV) infusion. The term “mgA” means the number of milligrams adjusted for active compound (e.g. corrected for salt etc.).
# Dosing: Four groups (Groups A, B, C, and D) of two rabbits each were dosed as follows.
# M. fascicularis primates = test: In vivo primate model (hypotensive effect: mean arterial pressure and heart rate); details: monkeys; for mean arterial pressure (MAP) / heart rate (HR): 0.1 mgA/kg SC bolus, mean of 2; for mean arterial pressure (MAP): baseline 101; for heart rate (HR): baseline 161
# [2] = Group D, 1.67 μg/kg/h, 4 hour IV infusion
# [3] = Group A, 1 mgA/kg SC, three monkeys
# [4] = Group C, 0.1 mgA/kg SC, 2 monkeys
smiles,measurement,setting,value
O=C([O-])c1ccc(CCCN2C(=O)CC[C@@H]2CC[C@@H](O)Cc2cccc(C(F)(F)F)c2)s1.[Na+] [Compound 3M sodium salt],heart rate (HR),"[1]; Group C, 16.7 μg/kg/hr IV infusion for 4 hours, 90 min, mean of 2, baseline 291",301 beats/minute
same,mean arterial pressure (MAP),"[1]; Group C, 16.7 μg/kg/hr IV infusion for 4 hours, 120 min, mean of 2, baseline 95",85 mm Hg
same,heart rate (HR),"[1]; Group C, 16.7 μg/kg/hr IV infusion for 4 hours, 120 min, mean of 2, baseline 291",304 beats/minute
same,mean arterial pressure (MAP),"[1]; Group C, 16.7 μg/kg/hr IV infusion for 4 hours, 150 min, mean of 2, baseline 95",85 mm Hg
same,heart rate (HR),"[1]; Group C, 16.7 μg/kg/hr IV infusion for 4 hours, 150 min, mean of 2, baseline 291",301 beats/minute
same,mean arterial pressure (MAP),"[1]; Group C, 16.7 μg/kg/hr IV infusion for 4 hours, 180 min, mean of 2, baseline 95",85 mm Hg
same,heart rate (HR),"[1]; Group C, 16.7 μg/kg/hr IV infusion for 4 hours, 180 min, mean of 2, baseline 291",298 beats/minute
same,mean arterial pressure (MAP),"[1]; Group C, 16.7 μg/kg/hr IV infusion for 4 hours, 210 min, mean of 2, baseline 95",89 mm Hg
same,heart rate (HR),"[1]; Group C, 16.7 μg/kg/hr IV infusion for 4 hours, 210 min, mean of 2, baseline 291",307 beats/minute
same,mean arterial pressure (MAP),"[1]; Group C, 16.7 μg/kg/hr IV infusion for 4 hours, 240 min, mean of 2, baseline 95",89 mm Hg
same,heart rate (HR),"[1]; Group C, 16.7 μg/kg/hr IV infusion for 4 hours, 240 min, mean of 2, baseline 291",306 beats/minute
same,effect on heart rate,[1]; [2],no significant change
same,effect on mean arterial pressure,[1]; [2],no significant change
same,mean arterial pressure (MAP),"[1]; Group D, 1.67 μg/kg/hr IV infusion for 4 hours, 5 min, mean of 2, baseline 89",85 mm Hg
same,heart rate (HR),"[1]; Group D, 1.67 μg/kg/hr IV infusion for 4 hours, 5 min, mean of 2, baseline 260",258 beats/minute
same,mean arterial pressure (MAP),"[1]; Group D, 1.67 μg/kg/hr IV infusion for 4 hours, 10 min, mean of 2, baseline 89",87 mm Hg
same,heart rate (HR),"[1]; Group D, 1.67 μg/kg/hr IV infusion for 4 hours, 10 min, mean of 2, baseline 260",260 beats/minute
same,mean arterial pressure (MAP),"[1]; Group D, 1.67 μg/kg/hr IV infusion for 4 hours, 15 min, mean of 2, baseline 89",85 mm Hg
same,heart rate (HR),"[1]; Group D, 1.67 μg/kg/hr IV infusion for 4 hours, 15 min, mean of 2, baseline 260",262 beats/minute
same,mean arterial pressure (MAP),"[1]; Group D, 1.67 μg/kg/hr IV infusion for 4 hours, 30 min, mean of 2, baseline 89",85 mm Hg
same,heart rate (HR),"[1]; Group D, 1.67 μg/kg/hr IV infusion for 4 hours, 30 min, mean of 2, baseline 260",262 beats/minute
same,mean arterial pressure (MAP),"[1]; Group D, 1.67 μg/kg/hr IV infusion for 4 hours, 60 min, mean of 2, baseline 89",87 mm Hg
same,heart rate (HR),"[1]; Group D, 1.67 μg/kg/hr IV infusion for 4 hours, 60 min, mean of 2, baseline 260",255 beats/minute
same,mean arterial pressure (MAP),"[1]; Group D, 1.67 μg/kg/hr IV infusion for 4 hours, 90 min, mean of 2, baseline 89",87 mm Hg
same,heart rate (HR),"[1]; Group D, 1.67 μg/kg/hr IV infusion for 4 hours, 90 min, mean of 2, baseline 260",253 beats/minute
same,mean arterial pressure (MAP),"[1]; Group D, 1.67 μg/kg/hr IV infusion for 4 hours, 120 min, mean of 2, baseline 89",85 mm Hg
same,heart rate (HR),"[1]; Group D, 1.67 μg/kg/hr IV infusion for 4 hours, 120 min, mean of 2, baseline 260",246 beats/minute
same,mean arterial pressure (MAP),"[1]; Group D, 1.67 μg/kg/hr IV infusion for 4 hours, 150 min, mean of 2, baseline 89",87 mm Hg
same,heart rate (HR),"[1]; Group D, 1.67 μg/kg/hr IV infusion for 4 hours, 150 min, mean of 2, baseline 260",246 beats/minute
same,mean arterial pressure (MAP),"[1]; Group D, 1.67 μg/kg/hr IV infusion for 4 hours, 180 min, mean of 2, baseline 89",87 mm Hg
same,heart rate (HR),"[1]; Group D, 1.67 μg/kg/hr IV infusion for 4 hours, 180 min, mean of 2, baseline 260",246 beats/minute
same,mean arterial pressure (MAP),"[1]; Group D, 1.67 μg/kg/hr IV infusion for 4 hours, 210 min, mean of 2, baseline 89",85 mm Hg
same,heart rate (HR),"[1]; Group D, 1.67 μg/kg/hr IV infusion for 4 hours, 210 min, mean of 2, baseline 260",247 beats/minute
same,mean arterial pressure (MAP),"[1]; Group D, 1.67 μg/kg/hr IV infusion for 4 hours, 240 min, mean of 2, baseline 89",92 mm Hg
same,heart rate (HR),"[1]; Group D, 1.67 μg/kg/hr IV infusion for 4 hours, 240 min, mean of 2, baseline 260",257 beats/minute
same,duration of hypotension,"M. fascicularis primates; Group A, 1 mgA/kg SC",sustained over the 4 hours post-dose
same,onset of hypotension,"M. fascicularis primates; Group A, 1 mgA/kg SC",< 2 min
same,effect on heart rate,M. fascicularis primates; [3],transient increase in heart rate
same,effect on mean arterial pressure,M. fascicularis primates; [3],decrease in mean arterial pressure
same,duration of hypotension,"M. fascicularis primates; Group C, 0.1 mgA/kg SC",sustained over the 4 hours post-dose
same,onset of hypotension,"M. fascicularis primates; Group C, 0.1 mgA/kg SC",< 4 min
same,mean arterial pressure (MAP),"M. fascicularis primates; Group C, 5 min post-dose",91 mm Hg
same,heart rate (HR),"M. fascicularis primates; Group C, 5 min post-dose",203 beats/minute
same,mean arterial pressure (MAP),"M. fascicularis primates; Group C, 10 min post-dose",57 mm Hg
same,heart rate (HR),"M. fascicularis primates; Group C, 10 min post-dose",206 beats/minute
same,mean arterial pressure (MAP),"M. fascicularis primates; Group C, 15 min post-dose",51 mm Hg
same,heart rate (HR),"M. fascicularis primates; Group C, 15 min post-dose",187 beats/minute
same,mean arterial pressure (MAP),"M. fascicularis primates; Group C, 30 min post-dose",53 mm Hg
same,heart rate (HR),"M. fascicularis primates; Group C, 30 min post-dose",190 beats/minute
same,mean arterial pressure (MAP),"M. fascicularis primates; Group C, 60 min post-dose",58 mm Hg
same,heart rate (HR),"M. fascicularis primates; Group C, 60 min post-dose",180 beats/minute
same,mean arterial pressure (MAP),"M. fascicularis primates; Group C, 90 min post-dose",58 mm Hg
same,heart rate (HR),"M. fascicularis primates; Group C, 90 min post-dose",180 beats/minute
same,mean arterial pressure (MAP),"M. fascicularis primates; Group C, 120 min post-dose",62 mm Hg
same,heart rate (HR),"M. fascicularis primates; Group C, 120 min post-dose",183 beats/minute
same,mean arterial pressure (MAP),"M. fascicularis primates; Group C, 150 min post-dose",65 mm Hg
same,heart rate (HR),"M. fascicularis primates; Group C, 150 min post-dose",187 beats/minute
same,mean arterial pressure (MAP),"M. fascicularis primates; Group C, 180 min post-dose",66 mm Hg
same,heart rate (HR),"M. fascicularis primates; Group C, 180 min post-dose",187 beats/minute
same,mean arterial pressure (MAP),"M. fascicularis primates; Group C, 210 min post-dose",71 mm Hg
same,heart rate (HR),"M. fascicularis primates; Group C, 210 min post-dose",191 beats/minute
same,mean arterial pressure (MAP),"M. fascicularis primates; Group C, 240 min post-dose",79 mm Hg
same,heart rate (HR),"M. fascicularis primates; Group C, 240 min post-dose",193 beats/minute
same,effect on heart rate,M. fascicularis primates; [4],transient increase in heart rate that returned toward normal but leveled off and remained elevated over the 4 hours post-dose
same,effect on mean arterial pressure,M. fascicularis primates; [4],decrease in mean arterial pressure
